5 molecules from US4005217A, “Treatment of helminth infections with substituted phenyl-thiourea derivatives” (May & Baker Limited, priority 1970, dated 1977) can be followed below.

In brackets after ≈: the same amount, converted by molar mass. Structures can show the parent of a compound that is named as a salt. Where two headings read alike, the source gives them in different places.

The subject of experiment [1] is Nippostrongylus brasiliensis. Briefly: Test 1: activity against roundworms in rats, treatment 6 days after infection (patent infection), worm counts 48 hours after treatment. The experiment is classed as in vivo. The protocol: Test 1 - Rats were infected with 100 Nippostrongylus brasiliensis larvae each, by the subcutaneous route. After 6 days, when the infection was patent, the rats were randomised and alloted to groups of 10 animals each, ready for treatment. One group was used for each dose level of the test compound and, in each experiment, one group was left untreated as a control. All the rats were killed for post-mortem worm counts 48 hours after treatment. The activity, expressed in terms of the percentage reduction in mean worm load of the treated group compared with the untreated group, is shown in Table I.

Experiment [2] deals with Nippostrongylus brasiliensis. Description: Test 2: activity against roundworms in rats, treatment 24 hours after infection, worm counts 6 days after dosing. Format: in vivo. The settings on record: rats; for inhibition in vivo at 1000 mg/kg / worm damage: Test 2, 1000 mg/kg oral. The protocol:
Test 2 -- Rats were infected with 100 Nippostrongylus brasiliensis larvae each, by the subcutaneous route. After 24 hours the rats were randomised and allotted to groups of 5 animals each, ready for treatment. Doses of the test compound were then administered to each group by the oral, subcutaneous and intraperitoneal routes respectively, one group of 10 animals being left untreated as a control. All the rats were killed for post-mortem worm counts 6 days after dosing. The activities, expressed in terms of the percentage reductions in mean worm load of the treated groups or damage to the worms compared with the untreated control group, are given below in Table I.

The subject of experiment [3] is Haemonchus contortus. Briefly: Activity against 4th larval stages in lambs, oral treatment (Table II). Format: in vivo. Particulars: 100 mg/kg oral. How it is done: (§1) i. 9 Worm-free lambs were each infected with H.contortus (approximately 9,000), T. axei (approximately 7,000) and T. colubriformis (approximately 12,000) infective larvae. After 7 days, 4 lambs were treated orally with 100 mg/kg animal body weight of the 2 test compounds, i.e. 2 lambs per compound, against the 4th larval stages of the worms. 23 Days after infection, all 9 lambs were killed for post-mortem worm counts and the burdens of each worm species in the 4 treated animals compared with those in the remaining 5 untreated control animals.

Experiment [4] has as its system Trichostrongylus axei. The description is as above. Format: in vivo. Particulars: 100 mg/kg oral. The protocol:
as §1

In experiment [5] the test system is Trichostrongylus colubriformis. The experiment is described as above. Format: in vivo. The settings on record: 100 mg/kg oral. How it is done:
as §1

The test system of experiment [6] is Haemonchus contortus. Description: Activity against mature adult stages in lambs, oral treatment (Table III). The experiment is classed as in vivo. The settings on record: 120 h, 15 mg/kg oral, read-out: Mean percentage reduction in worm burdens, H.contortus. How it is done: (§2) ii. 20 Worm-free lambs were each infected with H. contortus (approximately 5,600), T. axei (approximately 9,300) and T. colubriformis (approximately 10,000) infective larvae. After 22 days, 16 lambs were treated orally with 15 mg/kg animal body weight of the 8 test compounds, i.e. 2 lambs per compound, against the mature adult stages of the worms. 27 Days after infection, all 20 lambs were killed for post-mortem worm counts and the burden of each worm species in the 16 treated animals compared with those in the remaining 4 untreated control animals.

Experiment [7] deals with Trichostrongylus axei. The experiment is described as above. The settings on record: 120 h, 15 mg/kg oral, read-out: Mean percentage reduction in worm burdens, T.axei. Format: in vivo. How it is done:
as §2

The test system of experiment [8] is Trichostrongylus colubriformis. The experiment is described as above. Particulars: 120 h, 15 mg/kg oral, read-out: Mean percentage reduction in worm burdens, T.colubriformis. The experiment is classed as in vivo. The protocol:
as §2

The subject of experiment [9] is Nippostrongylus brasiliensis eggs. Briefly: In vitro activity against roundworms (egg hatching and larvae). Format: cell-based. Particulars: 96 h, tested at 100, 10, 1 and 0.1 μg/ml, inhibited or delayed hatching of eggs, or killed, retarded growth or reduced activity of larvae during 4 days, read-out: M.I.C. (minimum inhibitory concentration). The protocol: Compounds of formula I were tested at concentrations of 100 μg/ml, 10 μg/ml, 1 μg/ml and 0.1 μg/ml in small glass containers. If the compound was not soluble in water, a volatile organic medium, e.g. acetone, chloroform, ethanol or methanol was used. An amount of material appropriate for each final concentration was measured and placed in duplicate test containers and if an organic solvent was used it was allowed to evaporate completely. Nippostrongylus brasiliensis eggs were recovered by saturated saline centrifugal flotation from the faeces of rats heavily infected with third stage larvae six days previously. They were washed several times in water and suspended in water in a suitable concentration. From 25-50 eggs were placed in each container and the final volume was made up by the addition of a very dilute aqueous suspension of mouse faeces which served as the growth medium. The minimum inhibitory concentrations of each compound (M.I.C.), shown in the following Table V was the minimum concentration in μg/ml total liquid volume at which it inhibited or delayed hatching of eggs, or at which it killed, retarded growth or reduced activity of larvae during the 4 days after beginning the test.

The test system of a further experiment is Trichinella spiralis. Briefly: Activity against roundworms in mice. Format: in vivo. The settings on record: 100 mg/kg subcutaneous at 2 hours and 24 hours post infection, killed 5 days after second dose. The protocol: Mice were infected with approximately 100 Trichinella spiralis larvae each, by the oral route. The mice were randomised and allotted to two groups of 4 animals each. Doses of 1-methoxycarbonyl-3-(2-dimethylaminoacetamidophenyl)thiourea hydrochloride were then administered to one group by the subcutaneous route at 2 hours post infection and again at 24 hours post infection, one group of 4 animals being left untreated as a control. The doses given to the mice were 100 mg/kg animal body weight. All the mice were killed for postmortem examination 5 days after the second dose. The activity, expressed in terms of the percentage reduction in mean worm load of the treated group compared with the control group, was 95%.

The subject of the next experiment is H. contortus. Briefly: Activity in lambs by subcutaneous injection against 4th larval and adult stages. The experiment is classed as in vivo. The settings on record: 75 mg/kg subcutaneous injection (18% w/v aqueous solution). How it is done: (§3) b. 8 Worm-free lambs were each infected with H. contortus (approximately 7,000) and T. colubriformis ((approximately 15,000) infective larvae. After 7 days, 2 lambs were treated by subcutaneous injection of an 18% w/v aqueous solution at 75 mg/kg animal body weight of the test compound against the 4th larval stages of the worms. 28 Days after infection, 2 lambs were similarly treated against the adult stages of the worms. 35 Days after infection all 8 lambs were killed for post-mortem worm counts and the burdens of each worm species in the 4 treated animals compared with those in the remaining 4 untreated animals.

Another experiment has as its system T. colubriformis. The experiment is described as above. Format: in vivo. The settings on record: 75 mg/kg subcutaneous injection (18% w/v aqueous solution). The protocol:
as §3

Experiment [10] has as its system influenza virus type A2 /Hong Kong/5/68. Format: in vivo. The settings on record: mice, 250 mg/kg oral 3 hours before and 1 hour after infection; pooled lungs 24 hours after infection; greatest dilution producing agglutination.
[11] abbreviates: Nippostrongylus brasiliensis, 144 h, read-out: Percentage reduction in N.brasiliensis load.

For the molecule `CCCCc1ccc(NC(=S)NC(=O)OC)c(NC(C)=O)c1` [1-methoxycarbonyl-3-(2-acetamido-4-n-butylphenyl)thiourea], the worm damage entry in experiment [1] (Test 1, 500 mg/kg oral) is reported as “worm damage”; in [2] it was “worm damage”. In addition, the inhibition in vivo at 1000 mg/kg in experiment [2] (setting [11]) came to 98%. In addition, the “Mean percentage reduction in worm burdens, H.contortus” value in the experiment with Haemonchus contortus [3] was determined as 99.9%. Further, the “Mean percentage reduction in worm burdens, T.axei” value in the experiment with Trichostrongylus axei [4] is on record as 99.5%. The “Mean percentage reduction in worm burdens, T.colubriformis” value in [5] turned out to be 100%. Moreover, the results for the inhibition in vivo at 15 mg/kg (with Haemonchus contortus [6]; in the experiment with Trichostrongylus axei [7]; in experiment [8]) were 76.7%, 66.9% and 6.7%, respectively. Moreover, the MIC in [9] came to 0.1 µg/mL (≈ 0.309 µM).
As to `COC(=O)NC(=S)Nc1ccc(NC(=O)OC(C)C)cc1N` [1-methoxycarbonyl-3-(2-amino-4-isopropoxycarbonylaminophenyl)thiourea], the worm damage entry in experiment [1] (Test 1, 500 mg/kg oral) was “worm damage”. For the same molecule, the inhibition in vivo at 1000 mg/kg in experiment [2] (setting [11]) came out at 100%. In addition, the inhibition in vivo at 15 mg/kg in the experiment on Haemonchus contortus [6] was found to be 97.7%; in the experiment with Trichostrongylus axei [7], 94.6%; in experiment [8], 83%. Further, the MIC in [9] was found to be 100 µg/mL (≈ 306 µM).
Regarding `CCCCc1ccc(NC(=S)NC(=O)OC)c(N)c1` [1-methoxycarbonyl-3-(2-amino-4-n-butylphenyl)thiourea], the inhibition in vivo at 500 mg/kg in experiment [1] (Nippostrongylus brasiliensis, po, 48 h, Test 1, 500 mg/kg oral, read-out: Percentage reduction in N.brasiliensis load) came to 75%. Moreover, the worm damage result in experiment [1] (Test 1, 500 mg/kg oral) is “worm damage”. The “Mean percentage reduction in worm burdens, H.contortus” value in the experiment on Haemonchus contortus [3] was found to be 100%. In the experiment on Trichostrongylus axei [4], the “Mean percentage reduction in worm burdens, T.axei” value was determined as 99.5%. Further, the “Mean percentage reduction in worm burdens, T.colubriformis” value in experiment [5] is reported as 100%. The MIC in [9] worked out at 0.1 µg/mL (≈ 0.355 µM).
Consider `COC(=O)NC(=S)Nc1ccccc1NC(=O)CN(C)C` [1-methoxycarbonyl-3-(2-dimethylaminoacetamidophenyl)thiourea hydrochloride], for which the inhibition in vivo at 1000 mg/kg in experiment [1] (Nippostrongylus brasiliensis, po, 48 h, Test 1, 1000 mg/kg oral, read-out: Percentage reduction in N.brasiliensis load) was 91%; in experiment [2] (setting [11]), 100%. Besides, in experiment [2] (Nippostrongylus brasiliensis, ip, 144 h, Test 2, 50 mg/kg intraperitoneal, read-out: Percentage reduction in N.brasiliensis load), the inhibition in vivo at 50 mg/kg worked out at 89%. The inhibition in vivo at 100 mg/kg in experiment [2] (Nippostrongylus brasiliensis, ip, 144 h, Test 2, 100 mg/kg intraperitoneal, read-out: Percentage reduction in N.brasiliensis load) was determined as 99%. In addition, the inhibition in vivo at 250 mg/kg in [2] (Nippostrongylus brasiliensis, ip, 144 h, Test 2, 250 mg/kg intraperitoneal, read-out: Percentage reduction in N.brasiliensis load) stood at 96%; in experiment [2] (Nippostrongylus brasiliensis, sc, 144 h, Test 2, 250 mg/kg subcutaneous, read-out: Percentage reduction in N.brasiliensis load) it was 99.5%. In experiment [2] (Nippostrongylus brasiliensis, sc, 144 h, Test 2, 60 mg/kg subcutaneous, read-out: Percentage reduction in N.brasiliensis load), the inhibition in vivo at 60 mg/kg came out at 89.8%. For the same molecule, in [2] (Nippostrongylus brasiliensis, sc, 144 h, Test 2, 500 mg/kg subcutaneous, read-out: Percentage reduction in N.brasiliensis load), the inhibition in vivo at 500 mg/kg was found to be 99.5%. The “percentage reduction in mean worm load” value in the experiment with Trichinella spiralis was found to be 95%. For the same molecule, the inhibition in vivo at 15 mg/kg in the experiment with Haemonchus contortus [6] is 60%; with Trichostrongylus axei [7], 78%; in experiment [8], 43.4%. Moreover, the “Mean percentage reduction in worm burdens, H.contortus” value is given as 87.1% in the experiment with H. contortus (4th larval stage) and 95.3% with H. contortus (adult stage). For the same molecule, the “Mean percentage reduction in worm burdens, T.colubriformis” value in the experiment with T. colubriformis (4th larval stage) is on record as 99.9%; in the experiment on T. colubriformis (adult stage), 99.7%. For the same molecule, in experiment [9], the MIC amounted to 1 µg/mL.
As for `CCCCc1ccc(NC(=O)OCC)c(NC(=S)NC(=O)OC)c1` [1-methoxycarbonyl-3-(5-n-butyl-2-ethoxycarbonylaminophenyl)thiourea], the inhibition in vivo at 1000 mg/kg in experiment [2] (setting [11]) came out at 96%. Further, the worm damage result in experiment [2] is recorded as “worm damage”. The inhibition in vivo at 15 mg/kg in the experiment with Haemonchus contortus [6] came to 79.6%; in the experiment on Trichostrongylus axei [7], 78.6%; in experiment [8], 40.1%. Also, in experiment [9], the MIC came out at 10 µg/mL (≈ 28.3 µM). For the same molecule, in [10], the Haemagglutinin titre-treated animals is listed as 1/64.
